Blank lines part the entries; values can stand above or below the molecule they belong to.
Columns and labels:
[1] = target: T1, Citron Rho-interacting kinase (Homo sapiens, UniProt O14578)
[2] = Unbound fraction in human plasma measured after 4.5 hrs by LC-MS/MS analysis; type: ADME, cell-free
[3] = Unbound fraction in rat plasma measured after 4.5 hrs by LC-MS/MS analysis; type: ADME, cell-free
[4] = Apparent permeability across apical to basolateral side in dog MDCK cells incubated for 1 hr by LCMS analysis; type: ADME, cell-based, Canis lupus familiaris
[5] = target: CYP2D6 (Homo sapiens, UniProt P10635); assay: Inhibition of CYP2D6 (unknown origin) at 10 uM by LC/MS/MS analysis relative to control; type: ADME
[6] = target: CYP3A4 (Homo sapiens, UniProt P08684); assay: Inhibition of CYP3A4 (unknown origin) at 10 uM by LC/MS/MS analysis relative to control; type: ADME
[7] = target: CYP2C9 (Homo sapiens, UniProt P11712); assay: Inhibition of CYP2C9 (unknown origin) at 10 uM by LC/MS/MS analysis relative to control; type: ADME
[8] = Cmax in Sprague-Dawley rat at 1 mg/kg, iv measured upto 24 hrs; type: ADME, organism-based; settings: in vivo
[9] = AUC in Sprague-Dawley rat at 1 mg/kg, iv measured upto 24 hrs; type: ADME, organism-based; settings: in vivo
[10] = Half life in Sprague-Dawley rat at 1 mg/kg, iv measured upto 24 hrs; type: ADME, organism-based; settings: in vivo
[11] = Plasma clearance in Sprague-Dawley rat at 1 mg/kg, iv measured upto 24 hrs; type: ADME, organism-based
[12] = Volume of distribution at steady state in Sprague-Dawley rat at 1 mg/kg, iv measured upto 24 hrs; type: ADME, organism-based; settings: in vivo, read-out: Vdss
[13] = Cmax in Sprague-Dawley rat at 10 mg/kg, po measured upto 24 hrs; type: ADME, organism-based; settings: in vivo
[14] = AUC in Sprague-Dawley rat at 10 mg/kg, po measured upto 24 hrs; type: ADME, organism-based; settings: in vivo
[15] = Half life in Sprague-Dawley rat at 10 mg/kg, po measured upto 24 hrs; type: ADME, organism-based; settings: in vivo
[16] = Oral bioavailability in Sprague-Dawley rat at 10 mg/kg measured upto 24 hrs; type: ADME, organism-based; settings: in vivo
[17] = Cmax in CD-1 disease model mouse plasma at 30 mg/kg, po measured after 24 hrs; type: ADME, organism-based; settings: CD-1, mouse
[18] = AUC in CD-1 disease model mouse plasma at 30 mg/kg, po measured after 24 hrs; type: ADME, organism-based; settings: CD-1, mouse
[19] = Cmax in CD-1 disease model mouse brain at 30 mg/kg, po measured after 24 hrs; type: ADME, organism-based; settings: CD-1, mouse
[20] = AUC in CD-1 disease model mouse brain at 30 mg/kg, po measured after 24 hrs; type: ADME, organism-based; settings: CD-1, mouse
[21] = tested on: Panel NCI-60 (60 carcinoma cell lines); assay: Antiproliferative activity against human Panel NCI-60 (60 carcinoma cell lines) assessed as cell viability incubated for 48 hrs by CellTiter-Glo cell viability assay; type: functional
[22] = tested on: Hs-578T; assay: Antiproliferative activity against human Hs-578T cells assessed as cell viability incubated for 48 hrs by CellTiter-Glo cell viability assay; type: functional
[23] = tested on: COLO 205; assay: Antiproliferative activity against human COLO 205 Panel cells assessed as cell viability incubated for 48 hrs by CellTiter-Glo cell viability assay; type: functional
[24] = tested on: 786-0; assay: Antiproliferative activity against human 786-0 Panel cells assessed as cell viability incubated for 48 hrs by CellTiter-Glo cell viability assay; type: functional
[25] = target: T1, Citron Rho-interacting kinase; assay: Binding affinity to NanoLuc fused-CITK kinase domain (unknown origin) expressed in HEK293T cells assessed as dissociation constant NanoBRET Target Engagement Intracellular Kinase Assay; type: cell-based
[26] = target: T1, Citron Rho-interacting kinase; assay: Binding affinity to NanoLuc fused-CITK (unknown origin) expressed in HEK293T cells assessed as dissociation constant NanoBRET Target Engagement Intracellular Kinase Assay; type: cell-based
[27] = tested on: JVM-3; assay: Antiproliferative activity against human JVM-3 cells assessed as cell viability by standard PRISM assay; type: functional, cell-based

T1 sequence (O14578 whole entry): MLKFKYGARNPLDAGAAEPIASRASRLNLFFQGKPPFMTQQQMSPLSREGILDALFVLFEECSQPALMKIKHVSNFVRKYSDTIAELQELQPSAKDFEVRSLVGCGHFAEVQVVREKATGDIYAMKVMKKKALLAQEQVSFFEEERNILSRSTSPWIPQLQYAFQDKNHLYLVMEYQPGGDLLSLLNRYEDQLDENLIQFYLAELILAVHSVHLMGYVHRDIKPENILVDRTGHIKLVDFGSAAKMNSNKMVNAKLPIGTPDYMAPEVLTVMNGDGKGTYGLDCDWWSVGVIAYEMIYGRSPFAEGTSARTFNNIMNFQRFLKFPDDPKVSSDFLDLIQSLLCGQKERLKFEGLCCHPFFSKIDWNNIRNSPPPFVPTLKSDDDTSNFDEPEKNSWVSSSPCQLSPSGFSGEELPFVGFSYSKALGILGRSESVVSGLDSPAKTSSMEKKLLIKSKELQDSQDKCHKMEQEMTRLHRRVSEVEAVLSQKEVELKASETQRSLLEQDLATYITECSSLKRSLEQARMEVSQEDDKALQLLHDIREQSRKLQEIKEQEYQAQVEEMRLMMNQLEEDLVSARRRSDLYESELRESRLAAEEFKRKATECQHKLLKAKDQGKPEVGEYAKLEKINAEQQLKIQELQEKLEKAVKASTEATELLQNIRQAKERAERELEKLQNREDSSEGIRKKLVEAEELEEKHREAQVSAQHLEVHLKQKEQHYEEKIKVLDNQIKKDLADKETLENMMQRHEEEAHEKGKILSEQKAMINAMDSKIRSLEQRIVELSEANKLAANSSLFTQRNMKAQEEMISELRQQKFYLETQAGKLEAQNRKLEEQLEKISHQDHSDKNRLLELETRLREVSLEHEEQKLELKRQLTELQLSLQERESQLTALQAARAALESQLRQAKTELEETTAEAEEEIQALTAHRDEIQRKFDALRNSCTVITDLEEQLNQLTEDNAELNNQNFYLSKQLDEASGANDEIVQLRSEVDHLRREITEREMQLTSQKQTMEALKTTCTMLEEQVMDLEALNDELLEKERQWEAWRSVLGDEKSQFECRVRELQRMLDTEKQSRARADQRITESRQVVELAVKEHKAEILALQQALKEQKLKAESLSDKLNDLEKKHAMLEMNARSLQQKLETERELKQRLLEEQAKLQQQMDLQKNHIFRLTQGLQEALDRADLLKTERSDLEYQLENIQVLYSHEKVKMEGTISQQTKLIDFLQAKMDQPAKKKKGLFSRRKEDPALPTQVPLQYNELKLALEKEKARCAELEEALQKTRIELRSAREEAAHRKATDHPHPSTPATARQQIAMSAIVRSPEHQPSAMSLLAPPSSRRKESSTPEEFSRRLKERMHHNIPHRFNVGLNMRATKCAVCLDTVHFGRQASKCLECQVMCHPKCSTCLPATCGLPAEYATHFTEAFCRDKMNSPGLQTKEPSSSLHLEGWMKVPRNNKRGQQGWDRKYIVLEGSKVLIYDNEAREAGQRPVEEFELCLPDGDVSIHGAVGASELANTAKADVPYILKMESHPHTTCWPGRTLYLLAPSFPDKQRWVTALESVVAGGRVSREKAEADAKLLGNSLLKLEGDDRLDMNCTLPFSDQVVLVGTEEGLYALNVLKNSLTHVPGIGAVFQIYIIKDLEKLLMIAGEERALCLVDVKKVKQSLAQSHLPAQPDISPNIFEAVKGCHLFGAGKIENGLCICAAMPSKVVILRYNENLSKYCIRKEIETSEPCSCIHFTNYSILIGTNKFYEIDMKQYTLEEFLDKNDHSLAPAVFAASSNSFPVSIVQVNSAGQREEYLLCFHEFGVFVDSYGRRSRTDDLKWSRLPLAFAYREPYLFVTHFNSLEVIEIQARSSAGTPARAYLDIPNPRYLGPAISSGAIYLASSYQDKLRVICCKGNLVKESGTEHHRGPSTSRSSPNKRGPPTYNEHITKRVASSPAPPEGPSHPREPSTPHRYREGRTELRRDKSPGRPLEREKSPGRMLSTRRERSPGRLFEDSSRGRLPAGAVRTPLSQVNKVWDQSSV
Chain of CYP2D6 (P10635 whole entry): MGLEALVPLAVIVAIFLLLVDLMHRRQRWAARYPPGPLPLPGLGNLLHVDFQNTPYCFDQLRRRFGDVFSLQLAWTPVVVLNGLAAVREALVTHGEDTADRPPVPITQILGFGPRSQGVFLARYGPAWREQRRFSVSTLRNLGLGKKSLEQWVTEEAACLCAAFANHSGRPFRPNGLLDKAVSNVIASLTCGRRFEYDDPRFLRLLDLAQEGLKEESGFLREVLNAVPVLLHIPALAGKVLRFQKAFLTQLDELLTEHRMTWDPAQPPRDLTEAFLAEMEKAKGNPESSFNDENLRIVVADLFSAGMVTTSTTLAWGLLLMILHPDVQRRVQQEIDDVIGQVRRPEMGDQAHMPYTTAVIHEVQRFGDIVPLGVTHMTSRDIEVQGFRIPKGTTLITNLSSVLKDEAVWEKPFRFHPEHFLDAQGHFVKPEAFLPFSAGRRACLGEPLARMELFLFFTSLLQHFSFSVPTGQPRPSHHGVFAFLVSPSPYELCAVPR
Chain of CYP2C9 (P11712 whole entry): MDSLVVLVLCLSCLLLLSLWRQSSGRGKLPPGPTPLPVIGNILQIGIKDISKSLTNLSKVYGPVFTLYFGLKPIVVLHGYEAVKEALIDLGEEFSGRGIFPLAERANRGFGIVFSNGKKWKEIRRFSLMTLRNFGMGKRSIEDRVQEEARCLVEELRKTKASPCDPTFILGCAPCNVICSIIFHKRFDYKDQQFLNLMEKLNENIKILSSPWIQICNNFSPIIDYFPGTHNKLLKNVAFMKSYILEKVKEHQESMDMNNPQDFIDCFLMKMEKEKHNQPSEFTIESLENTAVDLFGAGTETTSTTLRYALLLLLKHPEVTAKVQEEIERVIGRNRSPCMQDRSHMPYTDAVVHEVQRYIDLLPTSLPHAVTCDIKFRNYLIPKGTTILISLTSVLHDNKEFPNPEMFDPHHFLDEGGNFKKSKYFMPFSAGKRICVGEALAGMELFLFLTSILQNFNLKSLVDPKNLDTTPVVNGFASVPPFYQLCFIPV
Chain of CYP3A4 (P08684 whole entry): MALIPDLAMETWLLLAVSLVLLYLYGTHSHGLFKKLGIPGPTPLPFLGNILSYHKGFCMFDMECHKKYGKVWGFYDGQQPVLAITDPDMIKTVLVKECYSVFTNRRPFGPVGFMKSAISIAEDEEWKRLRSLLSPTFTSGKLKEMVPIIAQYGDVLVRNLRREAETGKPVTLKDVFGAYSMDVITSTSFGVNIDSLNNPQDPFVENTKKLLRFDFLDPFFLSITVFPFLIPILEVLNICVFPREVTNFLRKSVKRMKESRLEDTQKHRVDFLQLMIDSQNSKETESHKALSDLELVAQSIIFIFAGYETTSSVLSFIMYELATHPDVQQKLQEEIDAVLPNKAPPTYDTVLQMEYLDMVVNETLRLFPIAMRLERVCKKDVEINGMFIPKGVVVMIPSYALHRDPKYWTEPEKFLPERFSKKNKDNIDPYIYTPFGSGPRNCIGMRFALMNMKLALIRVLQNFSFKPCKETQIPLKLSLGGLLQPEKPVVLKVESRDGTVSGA

IC50 [1]: 500 nM
Structure (SMILES): CC(N)c1ccc(-c2ccnc3[nH]ccc23)cc1 (centres undefined)

Fu [2]: 0.52%
Fu [3]: 0.26%
Papp A→B at 1 h [4]: 21.3 ×10⁻⁶ cm/s
inhibition at 10 µM [5]: 56.2%
inhibition at 10 µM [6]: 28.3%
inhibition at 10 µM [7]: 6.7%
Cmax [8]: 5.8 µM
AUC [9]: 10.2 µM·h
half-life [10]: 4.3 h
clearance [11]: 4.4 mL/min/kg
Vd [12]: 0.91 L/kg
Cmax [13]: 12.3 µM
AUC [14]: 7.3 µM·h
half-life [15]: 4 h
F [16]: 72%
Cmax [17]: 12.9 µM
AUC at 24 h [18]: 90.5 µM·h
Cmax [19]: 1.02 µM
AUC at 24 h [20]: 7.71 µM·h
GI50 [23]: < 2000 nM
GI50 [24]: < 2000 nM
Structure (SMILES): Cc1cc2c(-c3ccc(NC(=O)[C@H](N)CC(C)(C)C)cc3C)ccnc2[nH]1
GI50 [21]: 7000 nM
GI50 [22]: < 2000 nM

IC50 [1]: 16 nM
Structure (SMILES): Cc1cc2c(-c3ccc(NC(=O)[C@@H](N)[C@H](O)C(C)C)cc3C)ccnc2[nH]1

IC50 [1]: 150 nM
Structure (SMILES): C[C@@H](N)c1ccc(C(=O)Nc2ccnc3[nH]ccc23)cc1 [Y-39983]

IC50 [1]: 250 nM
Structure (SMILES): CC(N)C(=O)Nc1ccc(-c2ccnc3[nH]ccc23)cc1 (centres undefined)

Kd [25]: Not Active
Kd [26]: Not Active
IC50 [1]: > 30000 nM
Structure (SMILES): Cc1cc2c(-c3ccc(NC(=O)[C@H](N)CC(C)(C)C)cc3C)cncc2[nH]1

IC50 [1]: 5.5 nM
Structure (SMILES): Cc1cc2c(-c3ccc(NC(=O)[C@H](N)[C@@H](O)C(C)C)cc3C)ccnc2[nH]1
IC50 [27]: 4400 nM

IC50 [1]: 410 nM
Structure (SMILES): CC(C)CC(CN)C(=O)Nc1ccc(-c2ccnc3[nH]ccc23)cc1 (centres undefined)

Structure (SMILES): CC(C)C[C@H](N)C(=O)Nc1ccc(-c2ccnc3[nH]ccc23)cc1
IC50 [1]: 42 nM

Reference: ChEMBL document CHEMBL5537207, “Discovery and Characterization of Selective, First-in-Class Inhibitors of Citron Kinase” (J Med Chem, 2024)
